We go through five compounds from patent US20230158025A1 (UNIVERSITY OF UTAH RESEARCH FOUNDATION, priority 2020, published 2023).

Series [1] addresses recombinant human GALK1 (Homo sapiens, UniProt P51570). The experiment in a line: hGALK1 biochemical activity assay (Kinase-Glo Plus, ATP depletion). An outline of the steps: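 Turnover is measured as ATP depletion by Kinase-Glo Plus luminescence after a 1 h room-temperature reaction. Compounds span 11 concentrations, 57.4 μM–0.97 nM, in final 20 mM HEPES pH 8.0 with 5 mM MgCl2. The substrate solution held 35 μM ATP; the added solution held 5 nM human or mouse GALK1 and 100 μM galactose.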
(In general: Kinase-Glo measures the ATP left after a reaction by luminescence.)

Series [2] has as its target recombinant mouse GALK1 (Mus musculus, UniProt Q9R0N0). Nature of the series: mGALK1 biochemical activity assay (Kinase-Glo Plus, ATP depletion). Summed up:
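Recombinant GALK1 (5 nM) with 100 μM galactose; GALK1 turnover read as ATP depletion by Kinase-Glo Plus luminescence. Reaction ran 1 h at room temperature before detection reagent was added.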

The target of series [3] is T1, hGALK1m (Homo sapiens, UniProt P51570, E253A/K252A).
T1 construct: made in house; host or cells: E. coli HMS174
Nature of the series: in vitro hGALK1 activity assay of the structure-based optimisation (Example 12, Tables 17-20). Type of series: biochemical. To be noted: for fold improvement of potency (IC50) versus parent compound: increase in potency relative to the unsubstituted parent.

For series [4], the target named is T1, hGALK1m. Nature of the series: surface plasma resonance (SPR) binding. To be noted: SPR at 4° C. Here is the method: Further characterization of the two lead compounds thus far, Compound 1 and Compound 3, with surface plasma resonance (SPR), confirmed that these compounds bind to hGALK1m tightly. Their KDs were 23 nM and 12 nM respectively at 4° C. (FIGS. 4A and 3B). We attempted to co-crystalize these two compounds with hGALK1m, but only succeeded with Compound 1. […] Even with a fluorine substitution at C6 position, the benzoxazole ring of Compound 1 absolutely overlapped with that of Compound A (FIG. 4D). […] The decahydroquinazoline ring was opened in Compound 1, but the hydrogen bond between ketone group and Arg 105 remained intact, and Arg 105 moved closer to the ketone group in the crystal structure with Compound 1 (FIG. 4E). In addition, the amide's nitrogen atom formed a hydrogen bond with Tyr 109 (FIG. 4E), which could clarify why substituting the closed ring with opened amide structure improves the compound's activity. The isonicotinic acid moiety extended outside of the enzyme's active center and was solvent exposed (FIG. 4C).

Series [5] is described as follows: PAMPA permeability. In general terms: PAMPA measures passive passage across an artificial lipid membrane.
Series [6] can be described thus: aqueous kinetic solubility.
The nature of series [7]: rat microsomal stability (RLM). To be noted: for half-life: rat, rat liver microsomes. For orientation: Liver microsomes are vesicles of endoplasmic reticulum, rich in cytochrome P450 enzymes.
For series [8] the following is noted: rat.
For series [9] the following is noted: PAMPA.
Series [10] is described as follows: in vitro. The conditions noted are these: rat, microsomes.
Series [11] can be described thus: in vitro. The conditions noted are these: PAMPA, ADME P: PAMPA permeability (class).
In series [12] the test system is skin fibroblasts derived from GALT-deficient patients. The experiment in a line: Gal-1-p accumulation assay in patient fibroblasts. Type of series: cell-based, human. Here is the method:
Skin fibroblasts derived from GALT-deficient patients were maintained in galactose-free culture medium supplemented with 10% hexose-free fetal bovine serum (FBS). Before galactose challenge, inhibitors were added to the medium at designated concentrations and incubated at 37° C. for 4 hr. Then, galactose was added to reach 0.05% in the medium. After 4 hr of challenge, cells were collected and washed twice with PBS. Then, the cells were disrupted in 300 μL of ice-cold hypotonic buffer containing 25 mM Tris-HCl (pH 7.4), 25 mM NaCl, 0.5 mM EDTA, and protease inhibitor cocktail (Roche). The lysates were passed five times through a 30-gauge needle and centrifuged for 20 min at 16,000×g and 4° C. A small portion of supernatant was saved for protein concentration measurement. Gal-1-p level was measured using the alkaline phosphatase coupled method previously described. The gal-1-p concentration was normalized to protein concentration. The assay was analyzed using the paired t-test to determine the statistical difference between the compound treated cells and corresponding DMSO control. The two-sided p value less than 0.05 was considered statistically significant.
For measurement of cellular Gal-1P reduction, compounds at different concentrations were added to cultured patient fibroblast at 80% confluency. After incubating the compounds for 16 hours, 10 mM galactose was added to the culture. After another 4-hours, cells were washed with cold PBS buffer 3× and harvested for gal-1P measurement, according to previously published method. Liu et al., Bioorg. Med. Chem. Lett. 25(3): 721-727 (2015).
The in vitro hGALK1 activity assay was performed as previously described. Liu et al., Bioorg. Med. Chem. Lett. 25(3): 721-727 (2015). For the measurement of cellular Gal-1P reduction, compounds at different concentrations were added to cultured patient fibroblast at 80% confluency. After incubating the compounds for 16 hours, 10 mM galactose was added to the culture. […]

A short description of series [13]: mouse liver microsome stability (MLM). The class given is in vitro ADME. To be noted: GALK lead profile.
Series [14] can be described thus: human liver microsome stability (HLM). Type of series: in vitro ADME. The conditions noted are these: GALK lead profile.
[15] abbreviates: recombinant human GALK1, Kinase-Glo Plus ATP depletion, read-out: hGALK.
The mark [16] stands for this setting: Tables 2-15, 35 μM ATP, 100 μM galactose, 1 h, bracketed figure after some values is undefined and not reported, read-out: mGALK IC50.
[17] abbreviates: recombinant mouse GALK1, Kinase-Glo Plus ATP depletion, read-out: mGALK.
Where [18] appears, read: Tables 18-19, read-out: Max Response (%).
Where [19] appears, read: Tables 18-20 and text of Example 12.
[20] abbreviates: PAMPA, ADME P: PAMPA permeability (class), Tables 17-19, class probably colour-coded, colour lost.
Where [21] appears, read: PAMPA, Perm. (1 × 10^−6 cm/sec).
[22] abbreviates: Tables 2-15, 35 μM ATP, 100 μM galactose, 1 h, bracketed figure after some values (e.g. −1.2) is undefined and not reported, read-out: hGALK IC50.

One may read the Kd as the constant that tells how readily two partners part at equilibrium. Low values mean a tighter complex, high ones a looser complex. As a reminder, the Papp is a coefficient for how fast a substance crosses the barrier. Read a high Papp as fast passage. Broadly, the half-life is the time in which the quantity being followed falls by half. Read a high half-life as slow decline.

Read-outs that look alike come from different tables or passages of the source. Bounds are passed on as bounds.

Chain of recombinant mouse GALK1 (Q9R0N0 whole entry): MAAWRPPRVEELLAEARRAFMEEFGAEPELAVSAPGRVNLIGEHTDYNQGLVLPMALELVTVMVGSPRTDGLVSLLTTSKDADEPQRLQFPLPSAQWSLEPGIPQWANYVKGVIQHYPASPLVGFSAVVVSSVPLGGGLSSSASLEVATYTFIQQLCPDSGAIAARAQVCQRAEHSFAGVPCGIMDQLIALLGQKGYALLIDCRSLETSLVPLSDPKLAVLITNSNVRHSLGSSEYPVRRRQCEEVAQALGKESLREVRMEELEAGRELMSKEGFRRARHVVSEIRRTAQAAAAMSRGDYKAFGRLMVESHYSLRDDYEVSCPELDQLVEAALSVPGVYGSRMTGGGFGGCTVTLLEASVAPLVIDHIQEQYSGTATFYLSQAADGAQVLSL
T1 sequence (P51570 whole entry K252A/E253A): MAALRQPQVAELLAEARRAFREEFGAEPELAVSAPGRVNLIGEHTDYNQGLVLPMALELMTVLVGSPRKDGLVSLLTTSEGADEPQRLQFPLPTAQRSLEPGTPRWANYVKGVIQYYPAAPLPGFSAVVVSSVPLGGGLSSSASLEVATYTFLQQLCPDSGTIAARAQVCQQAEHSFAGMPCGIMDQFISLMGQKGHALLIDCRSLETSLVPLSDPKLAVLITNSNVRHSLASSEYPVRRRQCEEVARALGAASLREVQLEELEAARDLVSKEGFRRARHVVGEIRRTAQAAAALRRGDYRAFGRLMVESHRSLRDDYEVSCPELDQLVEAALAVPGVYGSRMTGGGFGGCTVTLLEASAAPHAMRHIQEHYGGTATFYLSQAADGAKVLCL
Chain of recombinant human GALK1 (P51570 whole entry): as the sequence (P51570 whole entry K252A/E253A) above, with A252K, A253E counted along it

On to `CC1=C(C(=O)Nc2cc(C(=O)O)ccn2)C(c2ccccc2Cl)N=C(Nc2nc3ccc(F)cc3o2)N1` (racemic) [Compound 1, 2-(4-(2-chlorophenyl)-2-((6-fluorobenzo[d]oxazol-2-yl)amino)-6-methyl-1,4-dihydropyrimidine-5-carboxamido)isonicotinic acid], for which the IC50 in series [1] (setting [15]) is 680 nM; in [2] (setting [16]), 4320 nM; in series [2] (setting [17]), 4320 nM; in series [3] (setting [19]), 260 nM. Also, the Emax in series [3] (setting [18]) is 100%. Further, the “fold improvement of potency (IC50) versus parent compound” value in series [3] is on record as around 4 fold. This compound returned a Kd in series [4] of 23 nM. The Papp is below 10 ×10⁻⁶ cm/s in series [5] (setting [20]) and below 1 ×10⁻⁶ cm/s in series [5] (setting [21]). Besides, in [6], the “Sol.” value is 46.1 µg/mL. For the same compound, in series [7] (microsomal half-life), the “Metab. Stabil. (m)” value is on record as above 30 m. In series [7], this compound showed a half-life below 10 min.
Regarding `CC1=C(C(=O)Nc2cc(C(=O)O)ccn2)C(c2ccccc2Cl)N=C(Nc2nc3cccc(N)c3o2)N1` (racemic) [Compound 3, 2(2-((7-aminobenzo[d]oxazol-2-yl)amino)-4-(2-chlorophenyl)-6-methyl-1,4-dihydropyrimidine-5-carboxamido)isonicotinic acid], the IC50 is 220 nM in series [1] (setting [22]); 220 nM in series [1] (setting [15]); 3430 nM in series [2] (setting [16]); 3430 nM in series [2] (setting [17]); 77 nM in [3] (setting [19]). Further, the Emax in series [3] (setting [18]) is 100%. Further, in [3], the “fold improvement of potency (IC50) versus parent compound” value came out at 13 fold. In series [4], binding was characterised by a dissociation constant (Kd) of 12 nM. Besides, the values for the apparent permeability (Papp) in [5] (setting [20]) and in [5] (setting [21]) were below 10 ×10⁻⁶ cm/s and below 1 ×10⁻⁶ cm/s, respectively. Further, the “Sol.” value in series [6] was above 76 µg/mL. For the same compound, the “Metab. Stabil. (m)” value in series [7] (microsomal half-life) is reported as above 30 m. Also, the half-life in series [7] was below 10 min.
In the case of `CC1=C(C(=O)Nc2cc(C(=O)O)ccn2)C(c2ccccc2Cl)N=C(Nc2nc3cc(Cl)ccc3o2)N1` (centres unmarked) [Compound 9, 2-(2-((5-chlorobenzo[d]oxazol-2-yl)amino)-4-(2-chlorophenyl)-6-methyl-1,4-dihydropyrimidine-5-carboxamido)isonicotinic acid], the IC50 in series [1] (setting [15]) was found to be 2430 nM; in series [2] (setting [16]), 6110 nM; in series [2] (setting [17]), 6110 nM; in series [3] (Tables 18-19 and text of Example 12), 1700 nM. Further, the Emax in [3] (setting [18]) is 100%. In series [8], the “Metab. Stabil. (m)” value is recorded as above 30 m. In addition, the “Perm. (1 × 10^−6 cm/sec)” value in [9] was <1 1 × 10^−6 cm/sec. This compound also yielded a half-life in [10] below 10 min. Also, in [11], the Papp is below 10 ×10⁻⁶ cm/s.
With `CC1=C(C(=O)NCc2cnn(C)c2)C(c2ccc(C)cc2Cl)N=C(Nc2nc3ccc(F)c(N)c3o2)N1` (centres unmarked) [Compound 126, 2-((7-amino-6-fluorobenzo[d]oxazol-2-yl)amino)-4-(2-chloro-4-methylphenyl)-6-methyl-N-((1-methyl-1H-pyrazol-4-yl)methyl)-1,4-dihydropyrimidine-5-carboxamide], the IC50 is 50 nM in series [1] (setting [22]), 50 nM in series [1] (setting [15]), 690 nM in [2] (setting [17]) and 14 nM in series [3] (setting [19]). In addition, the “effect on Gal-1P accumulation (FIG. 5A)” value in [12] (CG patient fibroblasts) was “inhibited Gal-1P accumulation”. In addition, the “change of Gal-1P inhibition with concentration (FIG. 5B)” value in series [12] (concentration increased from 0.5 μM to 1 μM) was “significantly greater inhibition of Gal-1P accumulation”; in series [12] (concentration increased from 1 μM to 3 μM), “did not increase significantly”. In series [13], this compound displayed an MLM t of 13 min. For the same compound, in [14], the HLM t is listed as 47 min. Moreover, in series [5] (GALK lead profile, two values given), the PAMPA is given as 485 10^−6 cm/s. For the same compound, the “Perm. (1 × 10^−6 cm/sec)” value in [5] (PAMPA) was 459.1 1 × 10^−6 cm/sec. This compound also had an apparent permeability coefficient (Papp) in series [5] (PAMPA, GALK lead profile, two values given) of 390 ×10⁻⁶ cm/s. Moreover, the “Sol.” value in [6] (aqueous kinetic solubility) is 1.27 µg/mL. Also, the RLM t in series [7] (GALK lead profile) is recorded as 16 min. The “Metab. Stabil. (m)” value in [7] (microsomal stability half-life) was determined as 17.1 m.
Take `CC1=C(C(=O)NCc2nc3ccccc3n2C)C(c2ccccc2Cl)N=C(Nc2nc3ccccc3o2)N1` (centres unmarked) [Compound 234, 2-(benzo[d]oxazol-2-ylamino)-4-(2-chlorophenyl)-6-methyl-N-((1-methyl-1H-benzo[d]imidazol-2-yl)methyl)-1,4-dihydropyrimidine-5-carboxamide]: the IC50 in [1] (setting [22]) amounted to 8630 nM; in series [1] (setting [15]) it was 8630 nM; in series [2] (setting [16]), 13700 nM; in series [2] (setting [17]) it was 13700 nM. In addition, in series [3], the “change of potency versus parent compound (in words)” value is “significantly impaired the potency”. The Emax in [3] (1 h, Table 17, read-out: Efficacy) came out at 48%. This compound gave a Papp in series [5] (setting [20]) below 10 ×10⁻⁶ cm/s. Also, the “Sol.” value in series [6] (aqueous kinetic solubility) is below 1 µg/mL. The “Metab. Stabil. (m)” value in series [7] (microsomal stability half-life) stood at 4.516 m. Besides, in [7], the half-life was below 10 min.
